This passage reports DC50 results from patent publication US20260200939A1, “MOLECULAR GLUE DEGRADER COMPOUNDS AND USES THEREOF” (Novartis AG, priority 2022, published 2026).

For orientation: DC50 means the concentration at which degradation of the target reaches its halfway point. Lower therefore signals degradation at low concentration.

Bounds are passed on as bounds.

Test [1] addresses T1, BRD4 long (Homo sapiens, UniProt O60885).
T1 construct: endogenous in cells; host or cells: HEK293T
As to the kind of experiment: BRD4 (long) degradation assay, Western blotting. In kind it is cell-based. On the procedure:
(§1) C33A cells were purchased from American Type Culture Collection (ATCC) and were cultured in Dulbecco's Modified Eagle Medium (DMEM) containing 10% (v/v) fetal bovine serum (FBS) and maintained at 37° C. with 5% CO2. 22RV1 cells were purchased from the ATCC and were cultured in RPMI-1640 Medium containing 10% (v/v) FBS and maintained at 37° C. with 5% CO2. HEK293T cells were obtained from the UC Berkeley Cell Culture Facility and were cultured in DMEM containing 10% (v/v) FBS and maintained at 37° C. with 5% CO2. K562 cells were obtained from the UC Berkeley Cell Culture Facility and were cultured in Iscove's Modified Dulbecco's Medium (IMDM) containing 10% (v/v) FBS and maintained at 37° C. with 5% CO2. MV-4-11 cells were obtained from the ATCC and were cultured in IMDM containing 10% (v/v) FBS and maintained at 37° C. with 5% CO2. A549 cells were obtained from the ATCC and were cultured in F-12K Medium containing 10% (v/v) FBS and maintained at 37° C. with 5% CO2. Mino cells were obtained from the ATCC and were cultured in RPMI-1640 Medium containing 10% (v/v) FBS and maintained at 37° C. with 5% CO2. LNCaP cells were obtained from the ATCC and were cultured in RPMI-1640 Medium containing 10% (v/v) FBS and maintained at 37° C. with 5% CO2. Unless otherwise specified, all cell culture materials were purchased from Gibco. It is not known whether HEK293T cells are from male or female origin.
(§2) Cells were washed twice with cold PBS, scraped, and pelleted by centrifugation (700 g, 5 min, 4° C.). Pellets were resuspended in PBS, sonicated, clarified by centrifugation (12,000 g, 10 min, 4° C.), and lysate was transferred to new low-adhesion microcentrifuge tubes. Proteome concentrations were determined using BCA assay and lysate was diluted to appropriate working concentrations.
(§3) Proteins were resolved by SDS/PAGE and transferred to nitrocellulose membranes using the Trans-Blot Turbo transfer system (Bio-Rad). Membranes were blocked with 5% BSA in Tris-buffered saline containing Tween 20 (TBS-T) solution for 30 min at RT, washed in TBS-T, and probed with primary antibody diluted in recommended diluent per manufacturer overnight at 4° C. After 3 washes with TBS-T, the membranes were incubated in the dark with IR680- or IR800-conjugated secondary antibodies at 1:10,000 dilution in 5% BSA in TBS-T at RT for 1 h. After 3 additional washes with TBST, blots were visualized using an Odyssey Li-Cor fluorescent scanner. The membranes were stripped using ReBlot Plus Strong Antibody Stripping Solution (EMD Millipore) when additional primary antibody incubations were performed. Antibodies used in this study were CDK4 (Abcam ab108357), Vinculin (Abcam ab129002), GAPDH (Cell Signaling Technology 14C10), RNF126 (Santa Cruz Biotechnology sc-376005), BRD4 (Abcam ab128874), Beta Actin (Cell Signaling Technology 13E5), PDE5 (Abcam ab259945), AR-V7 (Abcam ab273500), c-Abl (Santa Cruz Biotechnology sc-23), SMARCA2 (Abcam ab240648), LRRK2 (Abcam ab133474), BTK (Cell Signaling Technology D3H5), Androgen Receptor (Abcam ab133273).
On the technique in general: A western blot detects proteins with antibodies after separation by electrophoresis.

Test [2] has as its target T2, BRD4 short (Homo sapiens, UniProt O60885).
T2 construct: endogenous in cells; host or cells: HEK293T
As to the kind of experiment: BRD4 (short) degradation assay, Western blotting. In kind it is cell-based. How it is done:
as §1, §2, §3

Where [3] appears, read: first value of cell (long/short).
[4] abbreviates: second value of cell (long/short).
[5] abbreviates: first value of cell, range with lower bound in nM and upper bound in μM.
The mark [6] stands for this setting: second value of cell, range with lower bound in nM and upper bound in μM.

On to `COc1ccc(C(=O)/C=C/C(=O)N2CC3CCC2CN3C(=O)C[C@@H]2N=C(c3ccc(Cl)cc3)c3c(sc(C)c3C)-n3c(C)nnc32)cc1` (stereo partly drawn) [Compound 226, (E)-1-(5-(2-((S)-4-(4-chlorophenyl)-2,3,9-trimethyl-6H-thieno[3,2-f][1,2,4]triazolo[4,3-a][1,4]diazepin-6-yl)acetyl)-2,5-diazabicyclo[2.2.2]octan-2-yl)-4-(4-methoxyphenyl)but-2-ene-1,4-dione], for which the DC50 in test [1] (setting [3]) and in test [2] (setting [4]) was 10 to 100 nM throughout.

Consider `COc1ccc(C(=O)/C=C/C(=O)N2CC3(CCN(C(=O)C[C@@H]4N=C(c5ccc(Cl)cc5)c5c(sc(C)c5C)-n5c(C)nnc54)CC3)C2)cc1` [Compound 227, (S,E)-1-(7-(2-(4-(4-chlorophenyl)-2,3,9-trimethyl-6H-thieno[3,2-f][1,2,4]triazolo[4,3-a][1,4]diazepin-6-yl)acetyl)-2,7-diazaspiro[3.5]nonan-2-yl)-4-(4-methoxyphenyl)but-2-ene-1,4-dione], for which the DC50 in test [1] (setting [3]) and in test [2] (setting [4]) was 10 to 100 nM each time.

Consider `COc1ccc(C(=O)/C=C/C(=O)N2CC3CCC(C2)N(C(=O)C[C@@H]2N=C(c4ccc(Cl)cc4)c4c(sc(C)c4C)-n4c(C)nnc42)C3)cc1` (stereo partly drawn) [Compound 228, (E)-1-(6-(2-((S)-4-(4-chlorophenyl)-2,3,9-trimethyl-6H-thieno[3,2-f][1,2,4]triazolo[4,3-a][1,4]diazepin-6-yl)acetyl)-3,6-diazabicyclo[3.2.2]nonan-3-yl)-4-(4-methoxyphenyl)but-2-ene-1,4-dione], for which the DC50 in test [1] (setting [3]) and in test [2] (setting [4]) was 10 to 100 nM throughout.

For the molecule `COc1ccc(C(=O)/C=C/C(=O)N2CC3CC(C2)CN(C(=O)C[C@@H]2N=C(c4ccc(Cl)cc4)c4c(sc(C)c4C)-n4c(C)nnc42)C3)cc1` [Compound 229, (E)-1-(7-(2-((S)-4-(4-chlorophenyl)-2,3,9-trimethyl-6H-thieno[3,2-f][1,2,4]triazolo[4,3-a][1,4]diazepin-6-yl)acetyl)-3,7-diazabicyclo[3.3.1]nonan-3-yl)-4-(4-methoxyphenyl)but-2-ene-1,4-dione], the DC50 in test [1] (setting [5]) and in test [2] (setting [6]) was 100 to 1000 nM throughout.

`COc1ccc(C(=O)/C=C/C(=O)N2CC3CN(C(=O)C[C@@H]4N=C(c5ccc(Cl)cc5)c5c(sc(C)c5C)-n5c(C)nnc54)CC3C2)cc1` (stereo partly drawn) [Compound 230, (E)-1-(5-(2-((S)-4-(4-chlorophenyl)-2,3,9-trimethyl-6H-thieno[3,2-f][1,2,4]triazolo[4,3-a][1,4]diazepin-6-yl)acetyl)hexahydropyrrolo[3,4-c]pyrrol-2(1H)-yl)-4-(4-methoxyphenyl)but-2-ene-1,4-dione]: the DC50 in test [1] (setting [3]) and in test [2] (setting [4]) was 10 to 100 nM in each case.

For `COc1ccc(C(=O)/C=C/C(=O)N2CCC3(CC2)CN(C(=O)C[C@@H]2N=C(c4ccc(Cl)cc4)c4c(sc(C)c4C)-n4c(C)nnc42)CCO3)cc1` [Compound 231, (S,E)-1-(4-(2-(4-(4-chlorophenyl)-2,3,9-trimethyl-6H-thieno[3,2-f][1,2,4]triazolo[4,3-a][1,4]diazepin-6-yl)acetyl)-1-oxa-4,9-diazaspiro[5.5]undecan-9-yl)-4-(4-methoxyphenyl)but-2-ene-1,4-dione], the results for the DC50 in test [1] (setting [3]) and in test [2] (setting [4]) were 10 to 100 nM and 1 to 10 nM, respectively.

For `COc1ccc(C(=O)/C=C\C(=O)N2CCN(C(=O)C[C@@H]3N=C(c4ccc(Cl)cc4)c4c(sc(C)c4C)-n4c(C)nnc43)CC2)cc1` [Compound 232, (S,Z)-1-(4-(2-(4-(4-chlorophenyl)-2,3,9-trimethyl-6H-thieno[3,2-f][1,2,4]triazolo[4,3-a][1,4]diazepin-6-yl)acetyl)piperazin-1-yl)-4-(4-methoxyphenyl)but-2-ene-1,4-dione], the DC50 in test [1] (setting [3]) and in test [2] (setting [4]) was 10 to 100 nM in each case.

For `COc1ccc(C(=O)/C=C/C(=O)N2CCN(C(=O)C[C@@H]3N=C(c4ccc(Cl)cc4)c4c(sc(C)c4C)-n4c(C)nnc43)CC2)c(F)c1` [Compound 233, (S,E)-1-(4-(2-(4-(4-chlorophenyl)-2,3,9-trimethyl-6H-thieno[3,2-f][1,2,4]triazolo[4,3-a][1,4]diazepin-6-yl)acetyl)piperazin-1-yl)-4-(2-fluoro-4-methoxyphenyl)but-2-ene-1,4-dione], the DC50 in test [1] (setting [3]) and in test [2] (setting [4]) was < 100 nM throughout.

Take `COc1ccc(C(=O)/C=C/C(=O)N[C@H]2C[C@H](NC(=O)CC3N=C(c4ccc(Cl)cc4)c4c(sc(C)c4C)-n4c(C)nnc43)C2)c(F)c1` (stereo partly drawn) [Compound 234, (E)-N-((1S,3r)-3-(2-((S)-4-(4-chlorophenyl)-2,3,9-trimethyl-6H-thieno[3,2-f][1,2,4]triazolo[4,3-a][1,4]diazepin-6-yl)acetamido)cyclobutyl)-4-(2-fluoro-4-methoxyphenyl)-4-oxobut-2-enamide]: the half-maximal degradation concentration (DC50) in test [1] (setting [3]) came out at 50 nM; in test [2] (setting [4]), 150 nM.

On to `COc1cc(F)ccc1C(=O)/C=C/C(=O)N1CCN(C(=O)C[C@@H]2N=C(c3ccc(Cl)cc3)c3c(sc(C)c3C)-n3c(C)nnc32)CC1` [Compound 235, (S,E)-1-(4-(2-(4-(4-chlorophenyl)-2,3,9-trimethyl-6H-thieno[3,2-f][1,2,4]triazolo[4,3-a][1,4]diazepin-6-yl)acetyl)piperazin-1-yl)-4-(4-fluoro-2-methoxyphenyl)but-2-ene-1,4-dione], for which the DC50 in test [1] (setting [3]) and in test [2] (setting [4]) was < 100 nM throughout.

As for `COc1ccc(C(=O)/C=C/C(=O)N[C@H]2C[C@H](NC(=O)C[C@@H]3N=C(c4ccc(Cl)cc4)c4c(sc(C)c4C)-n4c(C)nnc43)C2)cc1F` [Compound 236, (E)-N-((1S,3r)-3-(2-((S)-4-(4-chlorophenyl)-2,3,9-trimethyl-6H-thieno[3,2-f][1,2,4]triazolo[4,3-a][1,4]diazepin-6-yl)acetamido)cyclobutyl)-4-(3-fluoro-4-methoxyphenyl)-4-oxobut-2-enamide], the DC50 is 90 nM in test [1] (setting [3]) and 190 nM in test [2] (setting [4]).

For `COc1ccc(C(=O)/C=C/C(=O)N2CCN(C(=O)C[C@@H]3N=C(c4ccc(Cl)cc4)c4c(sc(C)c4C)-n4c(C)nnc43)CC2)cc1F` [Compound 237, (S,E)-1-(4-(2-(4-(4-chlorophenyl)-2,3,9-trimethyl-6H-thieno[3,2-f][1,2,4]triazolo[4,3-a][1,4]diazepin-6-yl)acetyl)piperazin-1-yl)-4-(3-fluoro-4-methoxyphenyl)but-2-ene-1,4-dione], the DC50 in test [1] (setting [3]) and in test [2] (setting [4]) was < 100 nM throughout.

Turning to `Cc1sc2c(c1C)C(c1ccc(Cl)cc1)=N[C@@H](CC(=O)N1CCN(C(=O)/C=C/C(=O)c3ccc(C#N)cc3)CC1)c1nnc(C)n1-2` [Compound 238, (S,E)-4-(4-(4-(2-(4-(4-chlorophenyl)-2,3,9-trimethyl-6H-thieno[3,2-f][1,2,4]triazolo[4,3-a][1,4]diazepin-6-yl)acetyl)piperazin-1-yl)-4-oxobut-2-enoyl)benzonitrile], the DC50 in test [1] (setting [5]) is 100 to 1000 nM; in test [2] (setting [4]), < 100 nM.

Take `Cc1sc2c(c1C)C(c1ccc(Cl)cc1)=N[C@@H](CC(=O)N1CCN(C(=O)/C=C/C(=O)c3cccc(C#N)c3)CC1)c1nnc(C)n1-2` [Compound 239, (S,E)-3-(4-(4-(2-(4-(4-chlorophenyl)-2,3,9-trimethyl-6H-thieno[3,2-f][1,2,4]triazolo[4,3-a][1,4]diazepin-6-yl)acetyl)piperazin-1-yl)-4-oxobut-2-enoyl)benzonitrile]: the 50% degradation concentration (DC50) in test [1] (setting [5]) and in test [2] (setting [6]) was 100 to 1000 nM throughout.
